Tested on: NCI-H23 complex spheroids with HUVEC/MSC, viability
Assay: Anticancer human tumor NCI-H23 cell line growth inhibition [RAS];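 also: spheroids exposed to compound for 7 days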;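 as to viability, T/C: 100% = DMSO vehicle control viability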
Settings: for IC50: curve of first compound; for viability, T/C: stronger effect = lower value
Summary of the method: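 Tumour cells grown as complex spheroids with HUVEC endothelial cells and mesenchymal stem cells, treated with RAS pathway inhibitor combinations. Each agent spans half-log steps from near clinical Cmax, or 10 microM where Cmax is unknown.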

[1] = second compound 0.00316 µM, first compound 0.0316 µM
[2] = second compound 0.00316 µM, first compound 0.1 µM
[3] = second compound 0.00316 µM, first compound 0.316 µM
[4] = second compound 0.00316 µM, first compound 1 µM
[5] = second compound 0.01 µM, first compound 0.0316 µM
[6] = second compound 0.01 µM, first compound 0.1 µM
[7] = second compound 0.01 µM, first compound 0.316 µM
[8] = second compound 0.01 µM, first compound 1 µM
[9] = second compound 0.0316 µM, first compound 0.0316 µM
[10] = second compound 0.0316 µM, first compound 0.1 µM
[11] = second compound 0.0316 µM, first compound 0.316 µM
[12] = second compound 0.0316 µM, first compound 1 µM
[13] = second compound 0.1 µM, first compound 0.0316 µM
[14] = second compound 0.1 µM, first compound 0.1 µM
[15] = second compound 0.1 µM, first compound 0.316 µM
[16] = second compound 0.1 µM, first compound 1 µM
[17] = second compound 0.316 µM, first compound 0.0316 µM
[18] = second compound 0.316 µM, first compound 0.1 µM
[19] = second compound 0.316 µM, first compound 0.316 µM
[20] = second compound 0.316 µM, first compound 1 µM
[21] = second compound 1 µM, first compound 0.0316 µM
[22] = second compound 1 µM, first compound 0.1 µM
[23] = second compound 1 µM, first compound 0.316 µM
[24] = second compound 1 µM, first compound 1 µM

## NC1c2ccccc2OC12CCN(c1cnc3c(N4CCCc5ncccc54)n[nH]c3n1)CC2 (centres undefined) + C=CC(=O)N1CCN(c2nc(OCC3CCCN3C)nc3c(F)c(-c4nc(N)cc(C)c4C(F)(F)F)c(Cl)cc23)C(C)C1
Second compound 0.00316 µM
  IC50: < 31.6 nM
Second compound 0.01 µM
  IC50: < 31.6 nM
Second compound 0.0316 µM
  IC50: < 31.6 nM
Second compound 0.1 µM
  IC50: < 31.6 nM
Second compound 0.316 µM
  IC50: < 31.6 nM
Second compound 1 µM
  IC50: < 31.6 nM
[1]
  viability, T/C: 36.1%
[2]
  viability, T/C: 31.4%
[3]
  viability, T/C: 23.7%
[4]
  viability, T/C: 20.7%
Second compound 0.00316 µM, first compound 3.16 µM
  viability, T/C: 17.5%
Second compound 0.00316 µM, first compound 10 µM
  viability, T/C: 12.2%
[5]
  viability, T/C: 32.9%
[6]
  viability, T/C: 29.2%
[7]
  viability, T/C: 18.9%
[8]
  viability, T/C: 16.9%
Second compound 0.01 µM, first compound 3.16 µM
  viability, T/C: 11.4%
Second compound 0.01 µM, first compound 10 µM
  viability, T/C: 10.4%
[9]
  viability, T/C: 27.9%
[10]
  viability, T/C: 25%
[11]
  viability, T/C: 18.2%
[12]
  viability, T/C: 13.6%
Second compound 0.0316 µM, first compound 3.16 µM
  viability, T/C: 11.8%
Second compound 0.0316 µM, first compound 10 µM
  viability, T/C: 10.1%
[13]
  viability, T/C: 25%
[14]
  viability, T/C: 21.6%
[15]
  viability, T/C: 17.8%
[16]
  viability, T/C: 14.8%
Second compound 0.1 µM, first compound 3.16 µM
  viability, T/C: 11.8%
Second compound 0.1 µM, first compound 10 µM
  viability, T/C: 8.71%
[17]
  viability, T/C: 23.1%
[18]
  viability, T/C: 23.4%
[19]
  viability, T/C: 19.4%
[20]
  viability, T/C: 14.8%
Second compound 0.316 µM, first compound 3.16 µM
  viability, T/C: 12.2%
Second compound 0.316 µM, first compound 10 µM
  viability, T/C: 11.7%
[21]
  viability, T/C: 26.8%
[22]
  viability, T/C: 24.6%
[23]
  viability, T/C: 20.1%
[24]
  viability, T/C: 13.1%
Second compound 1 µM, first compound 3.16 µM
  viability, T/C: 12.8%
Second compound 1 µM, first compound 10 µM
  viability, T/C: 11.2%

## Nc1ccn(C2OC(CO)C(O)C2(F)F)c(=O)n1 (centres undefined) + C=CC(=O)N1CCN(c2nc(OCC3CCCN3C)nc3c(F)c(-c4nc(N)cc(C)c4C(F)(F)F)c(Cl)cc23)C(C)C1
Second compound 0.00316 µM
  IC50: < 3.16 nM
Second compound 0.01 µM
  IC50: < 3.16 nM
Second compound 0.0316 µM
  IC50: < 3.16 nM
Second compound 0.1 µM
  IC50: < 3.16 nM
Second compound 0.316 µM
  IC50: < 3.16 nM
Second compound 1 µM
  IC50: < 3.16 nM
Second compound 0.00316 µM, first compound 0.00316 µM
  viability, T/C: 29.9%
Second compound 0.00316 µM, first compound 0.01 µM
  viability, T/C: 4.17%
[1]
  viability, T/C: 1.98%
[2]
  viability, T/C: 2.04%
[3]
  viability, T/C: 2.83%
[4]
  viability, T/C: 2.41%
Second compound 0.01 µM, first compound 0.00316 µM
  viability, T/C: 34.3%
Second compound 0.01 µM, first compound 0.01 µM
  viability, T/C: 3.54%
[5]
  viability, T/C: 2.75%
[6]
  viability, T/C: 2.39%
[7]
  viability, T/C: 2.2%
[8]
  viability, T/C: 2.54%
Second compound 0.0316 µM, first compound 0.00316 µM
  viability, T/C: 24.9%
Second compound 0.0316 µM, first compound 0.01 µM
  viability, T/C: 3.04%
[9]
  viability, T/C: 2.2%
[10]
  viability, T/C: 2.3%
[11]
  viability, T/C: 2.25%
[12]
  viability, T/C: 3.18%
Second compound 0.1 µM, first compound 0.00316 µM
  viability, T/C: 20.2%
Second compound 0.1 µM, first compound 0.01 µM
  viability, T/C: 2.99%
[13]
  viability, T/C: 2.63%
[14]
  viability, T/C: 1.97%
[15]
  viability, T/C: 2.37%
[16]
  viability, T/C: 2.09%
Second compound 0.316 µM, first compound 0.00316 µM
  viability, T/C: 24.8%
Second compound 0.316 µM, first compound 0.01 µM
  viability, T/C: 3.77%
[17]
  viability, T/C: 2.05%
[18]
  viability, T/C: 1.47%
[19]
  viability, T/C: 2.4%
[20]
  viability, T/C: 2.12%
Second compound 1 µM, first compound 0.00316 µM
  viability, T/C: 21.4%
Second compound 1 µM, first compound 0.01 µM
  viability, T/C: 4.48%
[21]
  viability, T/C: 3.25%
[22]
  viability, T/C: 2.34%
[23]
  viability, T/C: 2.71%
[24]
  viability, T/C: 2.67%
